Test results published in PubChem BioAssay (NCI).
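Interpolation was linear, between the two tested concentrations surrounding the appropriate level; five concentrations were tested over 48 hours in 96-well plates. TGI is the concentration that stops growth completely.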

How the values were obtained:
Assay in all cases: growth of human tumour cells (NCI), 48 h
786-0 renal = tested on: 786-0 renal
A498 renal = tested on: A498 renal
A549 NSCLC = tested on: A549 NSCLC
ACHN renal = tested on: ACHN renal
BT-549 breast = tested on: BT-549 breast
CAKI-1 renal = tested on: CAKI-1 renal
CCRF-CEM leukemia = tested on: CCRF-CEM leukemia
COLO 205 colon = tested on: COLO 205 colon
DU-145 prostate = tested on: DU-145 prostate
EKVX NSCLC = tested on: EKVX NSCLC
HCC-2998 colon = tested on: HCC-2998 colon
HCT-116 colon = tested on: HCT-116 colon
HCT-15 colon = tested on: HCT-15 colon
HL-60(TB) leukemia = tested on: HL-60(TB) leukemia
HOP-62 NSCLC = tested on: HOP-62 NSCLC
HOP-92 NSCLC = tested on: HOP-92 NSCLC
HS 578T breast = tested on: HS 578T breast
HT29 colon = tested on: HT29 colon
IGROV1 ovarian = tested on: IGROV1 ovarian
KM12 colon = tested on: KM12 colon
LOX IMVI melanoma = tested on: LOX IMVI melanoma
M14 melanoma = tested on: M14 melanoma
MALME-3M melanoma = tested on: MALME-3M melanoma
MCF7 breast = tested on: MCF7 breast
MDA-MB-231 breast = tested on: MDA-MB-231 breast
MDA-MB-435 = tested on: MDA-MB-435
MDA-N = tested on: MDA-N
MOLT-4 leukemia = tested on: MOLT-4 leukemia
NCI-H23 lung = tested on: NCI-H23 lung
NCI-H460 lung = tested on: NCI-H460 lung
NCI-H522 lung = tested on: NCI-H522 lung
NCI/ADR-RES ovarian = tested on: NCI/ADR-RES ovarian
OVCAR-3 ovarian = tested on: OVCAR-3 ovarian
OVCAR-4 ovarian = tested on: OVCAR-4 ovarian
OVCAR-5 ovarian = tested on: OVCAR-5 ovarian
OVCAR-8 ovarian = tested on: OVCAR-8 ovarian
PC-3 prostate = tested on: PC-3 prostate
RPMI-8226 leukemia = tested on: RPMI-8226 leukemia
SF-268 CNS = tested on: SF-268 CNS
SF-295 CNS = tested on: SF-295 CNS
SF-539 CNS = tested on: SF-539 CNS
SK-MEL-2 melanoma = tested on: SK-MEL-2 melanoma
SK-MEL-28 melanoma = tested on: SK-MEL-28 melanoma
SK-MEL-5 melanoma = tested on: SK-MEL-5 melanoma
SN12C renal = tested on: SN12C renal
SNB-19 CNS = tested on: SNB-19 CNS
SNB-75 CNS = tested on: SNB-75 CNS
SR leukemia = tested on: SR leukemia
SW-620 colon = tested on: SW-620 colon
T-47D breast = tested on: T-47D breast
TK-10 renal = tested on: TK-10 renal
U251 CNS = tested on: U251 CNS
UACC-257 melanoma = tested on: UACC-257 melanoma
UACC-62 melanoma = tested on: UACC-62 melanoma
UO-31 renal = tested on: UO-31 renal
K-562 leukemia = tested on: K-562 leukemia
NCI-H226 lung = tested on: NCI-H226 lung
SK-OV-3 ovarian = tested on: SK-OV-3 ovarian

Clc1c2ccccc2nc2c1[nH]c1ccccc12
TGI (786-0 renal): > 100 µM
TGI (A498 renal): > 100 µM
TGI (A549 NSCLC): > 100 µM
TGI (ACHN renal): > 100 µM
TGI (BT-549 breast): > 100 µM
TGI (CAKI-1 renal): 65.2 µM
TGI (CCRF-CEM leukemia): > 100 µM
TGI (COLO 205 colon): 11.8 µM
TGI (DU-145 prostate): > 100 µM
TGI (EKVX NSCLC): > 100 µM
TGI (HCC-2998 colon): > 100 µM
TGI (HCT-116 colon): > 100 µM
TGI (HCT-15 colon): > 100 µM
TGI (HL-60(TB) leukemia): 41.4 µM
TGI (HOP-62 NSCLC): > 100 µM
TGI (HOP-92 NSCLC): > 100 µM
TGI (HS 578T breast): > 100 µM
TGI (HT29 colon): 34.3 µM
TGI (IGROV1 ovarian): > 100 µM
TGI (KM12 colon): 22.2 µM
TGI (LOX IMVI melanoma): > 100 µM
TGI (M14 melanoma): > 100 µM
TGI (MALME-3M melanoma): > 100 µM
TGI (MCF7 breast): > 100 µM
TGI (MDA-MB-231 breast): 46.7 µM
TGI (MDA-MB-435): > 100 µM
TGI (MDA-N): 16.9 µM
TGI (MOLT-4 leukemia): 9.61 µM
TGI (NCI-H23 lung): > 100 µM
TGI (NCI-H460 lung): > 100 µM
TGI (NCI-H522 lung): > 100 µM
TGI (NCI/ADR-RES ovarian): 89.7 µM
TGI (OVCAR-3 ovarian): > 100 µM
TGI (OVCAR-4 ovarian): > 100 µM
TGI (OVCAR-5 ovarian): > 100 µM
TGI (OVCAR-8 ovarian): > 100 µM
TGI (PC-3 prostate): > 100 µM
TGI (RPMI-8226 leukemia): 68.2 µM
TGI (SF-268 CNS): > 100 µM
TGI (SF-295 CNS): > 100 µM
TGI (SF-539 CNS): > 100 µM
TGI (SK-MEL-2 melanoma): > 100 µM
TGI (SK-MEL-28 melanoma): > 100 µM
TGI (SK-MEL-5 melanoma): 21.3 µM
TGI (SN12C renal): > 100 µM
TGI (SNB-19 CNS): > 100 µM
TGI (SNB-75 CNS): > 100 µM
TGI (SR leukemia): 43.6 µM
TGI (SW-620 colon): > 100 µM
TGI (T-47D breast): > 100 µM
TGI (TK-10 renal): > 100 µM
TGI (U251 CNS): > 100 µM
TGI (UACC-257 melanoma): > 100 µM
TGI (UACC-62 melanoma): > 100 µM
TGI (UO-31 renal): > 100 µM

CCO/C(Cc1ccc(Cl)cc1)=N/NC(N)=S
TGI (786-0 renal): > 100 µM
TGI (A498 renal): > 100 µM
TGI (A549 NSCLC): > 100 µM
TGI (ACHN renal): > 100 µM
TGI (BT-549 breast): > 100 µM
TGI (CAKI-1 renal): > 100 µM
TGI (CCRF-CEM leukemia): > 100 µM
TGI (COLO 205 colon): > 100 µM
TGI (DU-145 prostate): > 100 µM
TGI (EKVX NSCLC): > 100 µM
TGI (HCC-2998 colon): > 100 µM
TGI (HCT-116 colon): > 100 µM
TGI (HCT-15 colon): > 100 µM
TGI (HOP-62 NSCLC): > 100 µM
TGI (HOP-92 NSCLC): > 100 µM
TGI (HS 578T breast): > 100 µM
TGI (HT29 colon): > 100 µM
TGI (IGROV1 ovarian): > 100 µM
TGI (K-562 leukemia): > 100 µM
TGI (KM12 colon): > 100 µM
TGI (LOX IMVI melanoma): > 100 µM
TGI (M14 melanoma): > 100 µM
TGI (MALME-3M melanoma): > 100 µM
TGI (MCF7 breast): > 100 µM
TGI (MDA-MB-231 breast): > 100 µM
TGI (MDA-MB-435): > 100 µM
TGI (MDA-N): > 100 µM
TGI (MOLT-4 leukemia): > 100 µM
TGI (NCI-H226 lung): > 100 µM
TGI (NCI-H23 lung): > 100 µM
TGI (NCI-H460 lung): > 100 µM
TGI (NCI/ADR-RES ovarian): > 100 µM
TGI (OVCAR-3 ovarian): > 100 µM
TGI (OVCAR-4 ovarian): > 100 µM
TGI (OVCAR-5 ovarian): > 100 µM
TGI (OVCAR-8 ovarian): > 100 µM
TGI (PC-3 prostate): > 100 µM
TGI (SF-295 CNS): > 100 µM
TGI (SF-539 CNS): > 100 µM
TGI (SK-MEL-2 melanoma): > 100 µM
TGI (SK-MEL-28 melanoma): > 100 µM
TGI (SK-MEL-5 melanoma): > 100 µM
TGI (SK-OV-3 ovarian): > 100 µM
TGI (SN12C renal): > 100 µM
TGI (SNB-19 CNS): > 100 µM
TGI (SNB-75 CNS): > 100 µM
TGI (SR leukemia): > 100 µM
TGI (SW-620 colon): > 100 µM
TGI (T-47D breast): > 100 µM
TGI (TK-10 renal): > 100 µM
TGI (U251 CNS): > 100 µM
TGI (UACC-257 melanoma): > 100 µM
TGI (UACC-62 melanoma): > 100 µM
TGI (UO-31 renal): > 100 µM
